Reference: patent EP2057185B1, “POLYMYXIN DERIVATIVES AND USES THEREOF” (Northern Antibiotics Oy, priority 2006, dated 2008)
Bridge positions count the residues as written; N and C are the ends. Square brackets hold non-standard residues; d marks the D form. Peptide text beside a SMILES is read from it. * marks the point of attachment. Octanoyl = CCCCCCCC(=O)*; Dab = NCC[C@H](N)C(=O)O; Abu = CC[C@H](N)C(=O)O

Legend:
E. cloacae ATCC23355 = test: Growth inhibition around wells on LB agar plates; assay type: cell-based, Enterobacter cloacae; details: growth inhibition area around well
Protocol: (§1) From an overnight-grown culture of IH3080 on LB agar, a suspension of approx. 10^8 cells/ml was prepared in 0.9% NaCl. Aliquots of this suspension were then pipetted on the agar plates and the plates were gently shaken to spread the suspension evenly on the entire surface of the plate. Thereafter, the unabsorbed part of the suspension was removed by using a Pasteur pipette. After the surface had dried, small wells (diameter, 2 mm) were drilled on the plates (five wells per plate) by using a sterile sharp-edged narrow metal tube, single-use pipette tip, and vacuum suction. Samples (4 µl and 10 µl) of the peptide solution in 0.9% NaCl (at concentrations of 1 µg/ml and 0.1 µg/ml) were then pipetted to the wells and the sample fluids were allowed to absorb. Controls included 0.9% NaCl solution without the compound to be tested. The plates were then incubated for 18 h at 37°C whereafter the diameters of growth inhibition zones around each well were measured; the diameter of the well itself was […]. Finally, the diameters were converted to surface areas of growth inhibition (in square mm).
(§2) The susceptibility of eleven Gram-negative bacterial strains (nine different species) to NAB734 and polymyxin B was compared by using the susceptibility determination method described in Example 2. […]

E. coli ATCC25922 = test: Growth inhibition around wells on LB agar plates; assay type: cell-based, Escherichia coli; details: growth inhibition area around well
Protocol: as §1, §2

E. coli IH3080 (K1:O18) = test: Experimental E. coli peritonitis model in mice; assay type: in vivo; details: peritoneal fluid; 5 mg/kg body weight subcutaneous at 1 h; […] after the treatment
Protocol: A suspension of E. coli IH3080 (K1:O18) in saline (0.9% NaCl) was prepared from an overnight culture on a blood agar plate (Statens Serum Institut, Copenhagen, Denmark). All mice (female NMR1 from Harlan Scandinavia, Aller⌀d, Denmark; weight, 25-30 g) were inoculated intraperitoneally with 0.5 ml of the suspension containing 0.96 x 10^6 CFU per ml in the lateral lower quadrant of the abdomen. At 1 h, the CFU count was determined from three mice and the remaining mice (four mice per group) were treated with a subcutaneous injection of 0.2 ml of erythromycin solution in saline (corresponding to 5 mg/kg body weight) or NAB7061 solution in saline (corresponding to 5 mg/kg body weight), or both erythromycin and NAB7061 (corresponding to 5 mg/kg body weight of both drugs; given at two separate sites). Control group received two 0.2 ml injections of saline. At 4.5 h postinfection, all mice were anaesthetized with CO2 and sacrificed. Sterile saline (2 ml) was injected intraperitoneally and the abdomen was gently massaged before it was opened and the fluid sampled. Appropriate dilutions of the fluid were plated on blood agar plates, the plates were incubated overnight, and the colonies were counted.

Row | Compound | Antibacterial activity 4 µg (E. cloacae ATCC23355; 4 µg) | Antibacterial activity 10 µg (E. cloacae ATCC23355; 10 µg) | Antibacterial activity 4 µg (E. coli ATCC25922; 4 µg) | Antibacterial activity 10 µg (E. coli ATCC25922; 10 µg) | CFU counts (per ml) at 4.5 h postinfection (E. coli IH3080 (K1:O18))
1 | Polymyxin B | 95 square millimeters | 143 square millimeters | 95 square millimeters | 133 square millimeters | –
2 | CCCCCCCC(=O)N[C@H](C(=O)N[C@@H](CC)C(=O)N[C@H]1CCNC(=O)[C@H]([C@@H](C)O)NC(=O)[C@H](CCN)NC(=O)[C@H](CCN)NC(=O)[C@H](CC(C)C)NC(=O)[C@@H](Cc2ccccc2)NC(=O)[C@H](CCN)NC1=O)[C@@H](C)O [NAB 7061, OA-Thr-Abu-cy[Dab-Dab-DPhe-Leu-Dab-Dab-Thr-]] (Octanoyl-T[Abu][Dab][Dab][dF]L[Dab][Dab]T; lactam 3-C) | – | – | – | – | 1.1 (± 0.6) x 10^6 per ml
